The text below walks through data of patent EP4745130A1, “CRYSTAL FORMS OF TUBULIN-SRC DUAL-TARGETING INHIBITOR, PREPARATION METHOD THEREFOR AND USE THEREOF” (Hubei Bio-Pharmaceutical Industrial Technological Institute …, priority 2023, dated 2025).

What is called IC50 is the concentration that gives 50% inhibition. Usually half-life stands for how long it takes for the measured level to halve. A high value points to slow decline.

The test system of series [1] is actinic keratosis patient-derived cell HT 297.T. As to the kind of experiment: Cell proliferation inhibition test, HT 297.T. The class given is cell-based, Human. On the procedure: Human cutaneous squamous cell carcinoma cell A-431 (ATCC, CRL-1555) and actinic keratosis patient-derived cell HT 297.T (ATCC, CRL-7782) proliferation assays were used to detect the inhibitory effect of small molecular compounds on cell proliferation.
A-431 cells and HT 297.T cells were cultured in DMEM medium containing 10% fetal bovine serum and grown at 37°C in a 5% CO2 incubator. Cells on logarithmic phase were seeded into a 96-well cell culture plate at 1000 cells/well, 100 µL per well, and then cultured overnight at 37°C in a 5% CO2 incubator. The next day, 100 µL of gradient-diluted 2× test compound solution was added to each well, with DMSO serving as a positive control, and 10 µM staurosporine (Aladdin, S102392) was set as a negative control group. After the addition of the compounds, the culture plate was incubated for another 4 days at 37°C in a 5% CO2 incubator. After incubation, the Steady-Glo® luciferase assay system (Promega, G9243) was used according to the supplier's instructions to measure the fluorescence signal value on the Envision 2104 Multilabel Reader. The inhibition rate was calculated by the following formula, then the curve was plotted with the Log value of the inhibitor concentration as the X-axis and the inhibition rate as the Y-axis, and the IC50 was calculated using Graphpad 8.0. [formula] Table 41: Inhibition results of test compounds on proliferation activity of A-431 and HT 297.T cells

A short description of series [2]: Human liver microsome stability test. The class given is in vitro ADME. As for the experimental part:
The human liver microsome stability test was performed by incubating the compound and human liver microsomes in vitro. First, the compound to be tested was prepared into a 10 mM stock solution in DMSO solvent, and then the compound was diluted to 0.5 mM with acetonitrile. Human liver microsomes (Corning) were diluted with PBS into a microsome/buffer solution, and the solution was used to dilute 0.5 mM compound into a working solution, in which the concentration of the compound was 1.5 µM, and the concentration of human liver microsomes was 0.75 mg/mL. A deep-well plate was taken, 30 µL of the working solution was added per well, and then 15 µL of pre-heated 6 mM NADPH solution was added thereto to initiate a reaction, and the reaction was incubated at 37°C. At 0, 5, 15, 30 and 45 min of the incubation, 135 µL of acetonitrile was added to the corresponding wells to terminate the reaction. After the reaction was terminated with acetonitrile at the last time point of 45 min, the deep-well plate was vortexed and shaken for 10 min (600 rpm), and then centrifuged for 15 min. After centrifugation, the supernatant was collected, and added with purified water in a ratio of 1:1 to perform LC-MS/MS detection. A ratio of a peak area of compound to a peak area of internal standard at each time point was obtained, and the peak area ratios of the compound at 5, 15, 30 and 45 min were compared with the peak area ratio at 0 min to calculate the remaining percentage of the compound at each time point. T1/2 was calculated by using GraphPad 5 software. Table 45: Results of human liver microsome stability test

`Cc1cc(OCCN2C[C@H]3COC[C@H]3C2)ccc1-c1ccc(CC(=O)NCc2ccccc2)nc1` [Compound of Formula I, N-benzyl-2-(5-(2-methyl-4-(2-((3aR,6aS)-tetrahydro-1H-furo[3,4-c]pyrrol-5(3H)-yl)ethoxy)phenyl)pyridin-2-yl)acetamide] registered an IC50 in series [1] (Homo sapiens, 96 h, 4 days incubation) of 0.0413 µM. Further, the “inhibitory effect on HT 297.T cells” value in series [1] (in words, versus control compound) was “significantly better than that of the control compound”. Besides, in series [2] (human liver microsomes, NADPH, 37°C, 0-45 min), the half-life at 1 µM came out at 17.2 min. Moreover, in series [2] (in words), the “metabolism by human liver microsomes” value is listed as “metabolized quickly”.
